US9115101B2 (Genentech, Inc., priority 2012, dated 2015)

Target: T1, RORc ligand binding domain (Homo sapiens, UniProt P51449)
T1 construct: host or cells: E. coli
T1 sequence (P51449 269-508 limits assumed): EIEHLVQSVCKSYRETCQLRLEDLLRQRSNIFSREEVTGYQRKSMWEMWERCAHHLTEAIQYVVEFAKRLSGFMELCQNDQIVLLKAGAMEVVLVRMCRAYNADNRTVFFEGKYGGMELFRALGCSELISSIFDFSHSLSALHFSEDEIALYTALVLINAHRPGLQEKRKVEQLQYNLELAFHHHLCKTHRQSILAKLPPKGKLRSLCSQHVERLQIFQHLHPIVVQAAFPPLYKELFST
Assay: In Vitro RORc Ligand Binding Assay (25-[3H]hydroxycholesterol radioligand filtration)
Conditions: In Vitro RORc Ligand Binding Assay; Table 4; read-out: RORc IC50

Compound	IC50
CC(=O)N1CCN(c2ccc(CN3CCCC(c4ccccc4)S3(=O)=O)c(F)c2)CC1 (stereo not shown) [Example 10, 1-{4-[4-(1,1-Dioxo-6-phenyl-[1,2]thiazinan-2-ylmethyl)-3-fluoro-phenyl]-piperazin-1-yl}-ethanone]	149 nM
CC(=O)N1CCN(c2ccc(CN3CCOCC(c4ccccc4)S3(=O)=O)c(F)c2)CC1 (stereo not shown) [Example 21, 1-{4-[4-(4,4-Dioxo-3-phenyl-[1,4,5]oxathiazepan-5-ylmethyl)-3-fluoro-phenyl]-piperazin-1-yl}-ethanone]	209 nM
C[C@@H]1CCC(c2ccccc2)S(=O)(=O)N1Cc1ccc(OC2CCN(S(C)(=O)=O)CC2)cc1 (stereo partly drawn) [Example 52, (3R)-3-Methyl-2-(4-((1-(methylsulfonyl)piperidin-4-yl)oxy)benzyl)-6-phenyl-1,2-thiazinane 1,1-dioxide]	20 nM
C[C@@H]1CCC(c2ccccc2)S(=O)(=O)N1Cc1ccc(OC2CCN(S(C)(=O)=O)CC2)cc1F (stereo partly drawn) [Example 53, 2-(2-fluoro-4-((1-(methylsulfonyl)piperidin-4-yl)oxy)benzyl)-(3R)-3-methyl-6-phenyl-1,2-thiazinane 1,1-dioxide]	6 nM
CC(=O)N1CCN(c2ccc(CN3[C@@H](C)CCC(c4ccccc4)S3(=O)=O)nc2)CC1 (stereo partly drawn) [Example 67, 1-{4-[6-((3S)-3-Methyl-1,1-dioxo-6-phenyl-[1,2]thiazinan-2-ylmethyl)-pyridin-3-yl]-piperazin-1-yl}-ethanone]	1540 nM
C[C@H]1CCC(c2ccccc2)S(=O)(=O)N1Cc1ccc(NC2CCC(C#N)CC2)cc1F (stereo partly drawn) [Example 101, 4-[3-Fluoro-4-((3S)-3-methyl-1,1-dioxo-6-phenyl-[1,2]thiazinan-2-ylmethyl)-phenylamino]-cyclohexanecarbo-nitrile]	18 nM
C[C@H]1CCC(c2ccccc2)S(=O)(=O)N1Cc1ccc(N2CCC(C(=O)O)CC2)cc1F (stereo partly drawn) [Example 120, 1-[3-Fluoro-4-((3S)-3-methyl-1,1-dioxo-6-phenyl-[1,2]thiazinan-2-ylmethyl)-phenyl]-piperidine-4-carboxylic acid]	102 nM
C[C@H]1CCC(c2ccccc2)S(=O)(=O)N1Cc1ccc(N2CCC(C(=O)NC#N)CC2)cc1F (stereo partly shown) [Example 125]	18 nM
C[C@H]1CCC(c2ccccc2)S(=O)(=O)N1Cc1ccc(N2CCC(n3cccn3)CC2)cc1F (stereo partly drawn) [Example 209, (3S)-2-[2-Fluoro-4-(4-pyrazol-1-yl-piperidin-1-yl)-benzyl]-3-methyl-6-phenyl-[1,2]thiazinane 1,1-dioxide]	121 nM
C[C@H]1CCC(c2ccccc2)S(=O)(=O)N1Cc1ccc(N2CCC(c3nnco3)CC2)cc1F (stereo partly drawn) [Example 210, (3S)-2-[2-Fluoro-4-(4-[1,3,4]oxadiazol-2-yl-piperidin-1-yl)-benzyl]-3-methyl-6-phenyl-[1,2]thiazinane 1,1-dioxide]	38 nM
C[C@H]1CCC(c2ccccc2)S(=O)(=O)N1Cc1ccc(N2CCC(n3cncn3)CC2)cc1F (stereo partly drawn) [Example 215, (3S)-2-[2-Fluoro-4-(4-[1,2,4]triazol-1-yl-piperidin-1-yl)-benzyl]-3-methyl-6-phenyl-[1,2]thiazinane 1,1-dioxide]	30 nM
C[C@H]1CCC(c2ccccc2)S(=O)(=O)N1Cc1ccc(NC2CCN(S(C)(=O)=O)CC2)cc1 (stereo partly drawn) [Example 216, (1-Methanesulfonyl-piperidin-4-yl)-[4-((3S)-3-methyl-1,1-dioxo-6-phenyl-[1,2]thiazinan-2-ylmethyl)-phenyl]-amine]	9 nM
C[C@H]1CCC(c2ccccc2)S(=O)(=O)N1Cc1ccc(N2CCC(n3ccnc3)CC2)cc1F (stereo partly drawn) [Example 217, (3S)-2-[2-Fluoro-4-(4-imidazol-1-yl-piperidin-1-yl)-benzyl]-3-methyl-6-phenyl-[1,2]thiazinane 1,1-dioxide]	11 nM
C[C@@H]1CC(c2ccccc2)S(=O)(=O)N(Cc2ccc(NC3CCN(S(C)(=O)=O)CC3)cc2F)C1 (stereo partly drawn) [Example 227, [3-Fluoro-4-((4R)-methyl-1,1-dioxo-6-phenyl-[1,2]thiazinan-2-ylmethyl)-phenyl]-(1-methanesulfonyl-piperidin-4-yl)-amine]	3 nM
C[C@@H]1CC(c2ccccc2)S(=O)(=O)N(Cc2ccc(N3CCN(C(=O)CC#N)CC3)cc2F)C1 (stereo partly drawn) [Example 230, 3-{4-[3-Fluoro-4-((4R)-methyl-1,1-dioxo-6-phenyl-[1,2]thiazinan-2-ylmethyl)-phenyl]-piperazin-1-yl}-3-oxo-propionitrile]	93 nM
C[C@H]1CCC(c2ccccc2)S(=O)(=O)N1Cc1ccc(N[C@H]2CC[C@@H](n3cnnc3)CC2)cc1F (stereo partly drawn) [Example 231, [3-Fluoro-4-((3S)-methyl-1,1-dioxo-6-phenyl-[1,2]thiazinan-2-ylmethyl)-phenyl]-(4-[1,2,4]triazol-4-yl-cyclohexyl)-amine]	73 nM
C[C@H]1CCC(c2ccccc2)S(=O)(=O)N1Cc1ccc(N[C@H]2CC[C@H](n3cnnc3)CC2)cc1F (stereo partly drawn) [Example 232, [3-Fluoro-4-((3S)-methyl-1,1-dioxo-6-phenyl-[1,2]thiazinan-2-ylmethyl)-phenyl]-(4-[1,2,4]triazol-4-yl-cyclohexyl)-amine]	275 nM
C[C@H]1CCC(c2ccccc2)S(=O)(=O)N1Cc1ccc(N2CCC(/C(N)=N/O)CC2)cc1F (stereo partly drawn) [Example 233, 1-[3-Fluoro-4-((3S)-methyl-1,1-dioxo-6-phenyl-[1,2]thiazinan-2-ylmethyl)-phenyl]-N-hydroxy-piperidine-4-carboxamidine]	39 nM
C[C@H]1CCC(c2ccccc2)S(=O)(=O)N1Cc1ccc(N[C@H]2C[C@H](n3cnnc3)C2)cc1F (stereo partly drawn) [Example 234, [3-Fluoro-4-((3S)-methyl-1,1-dioxo-6-phenyl-[1,2]thiazinan-2-ylmethyl)-phenyl]-(3-[1,2,4]triazol-4-yl-cyclobutyl)-amine]	132 nM
C[C@H]1CCC(c2ccccc2)S(=O)(=O)N1Cc1ccc(N2CCC(c3ncon3)CC2)cc1F (stereo partly drawn) [Example 235, 2-[2-Fluoro-4-(4-[1,2,4]oxadiazol-3-yl-piperidin-1-yl)-benzyl]-(3S)-methyl-6-phenyl-[1,2]thiazinane 1,1-dioxide]	40 nM
C[C@H]1CCC(c2ccccc2)S(=O)(=O)N1Cc1ccc(NC2CCN(S(C)(=O)=O)CC2)c(F)c1 (stereo partly drawn) [Example 236, [2-Fluoro-4-((3S)-methyl-1,1-dioxo-6-phenyl-[1,2]thiazinan-2-ylmethyl)-phenyl]-(1-methanesulfonyl-piperidin-4-yl)-amine]	6 nM
CC(=O)N1CCN(c2ccc(CN3[C@@H](C)CCC(c4ccccc4)S3(=O)=O)c(F)c2)[C@@H](C)C1 (stereo partly drawn) [Example 237, 1-{4-[3-Fluoro-4-((3S)-methyl-1,1-dioxo-6-phenyl-[1,2]thiazinan-2-ylmethyl)-phenyl]-3-methyl-piperazin-1-yl}-ethanone]	6 nM

Further lines, results first:

IC50	Compound
73 nM	C[C@H]1CCC(c2ccccc2)S(=O)(=O)N1Cc1ccc(N2CCN(C=O)CC2)cc1F (stereo partly drawn) [Example 115, 4-[3-Fluoro-4-((3S)-3-methyl-1,1-dioxo-6-phenyl-[1,2]thiazinan-2-ylmethyl)-phenyl]-piperazine-1-carbaldehyde]
89 nM	C[C@H]1CCC(c2ccccc2)S(=O)(=O)N1Cc1ccc(N2CCN(C3=CC(=O)CC3)CC2)cc1F (stereo partly drawn) [Example 123, 3-{4-[3-Fluoro-4-((3S)-3-methyl-1,1-dioxo-6-phenyl-[1,2]thiazinan-2-ylmethyl)-phenyl]-piperazin-1-yl}-cyclopent-2-enone]
10 nM	CN/C(=N\C#N)N1CCN(c2ccc(CN3[C@@H](C)CCC(c4ccccc4)S3(=O)=O)c(F)c2)CC1 (stereo partly drawn) [Example 124, 1-(4-{3-Fluoro-4-[(3S)-6-phenyl-3-methyl-1,1-dioxo-[1,2]thiazinan-2-ylmethyl]-phenyl}-piperazin-1-yl)-(Z)-N′-cyano-N-methylacetimid-amide]
258 nM	CN/C(=C\[N+](=O)[O-])N1CCN(c2ccc(CN3[C@@H](C)CCC(c4ccccc4)S3(=O)=O)c(F)c2)CC1 (stereo partly drawn) [Example 126, ((E)-1-{4-[3-Fluoro-4-((3S)-3-methyl-1,1-dioxo-6-phenyl-[1,2]thiazinan-2-ylmethyl)-phenyl]-piperazin-1-yl}-2-nitro-vinyl)-methyl-amine]
1580 nM	CC(=O)N1CCN(c2ccc(CN3[C@@H](C)CCC(c4ccccc4)S3(=O)=O)c(Cl)c2)CC1 (stereo partly drawn) [Example 180, 1-{4-[3-Chloro-4-((3S)-3-methyl-1,1-dioxo-6-phenyl-[1,2]thiazinan-2-ylmethyl)-phenyl]-piperazin-1-yl}-ethanone]
179 nM	CC1CC(=O)C=C(N2CCN(c3ccc(CN4[C@@H](C)CCC(c5ccccc5)S4(=O)=O)c(F)c3)CC2)C1 (stereo partly drawn) [Example 186, 3-{4-[3-Fluoro-4-((3S)-3-methyl-1,1-dioxo-6-phenyl-[1,2]thiazinan-2-ylmethyl)-phenyl]-piperazin-1-yl}-5-methyl-cyclohex-2-enone]
647 nM	C[C@H]1CCC(c2ccccc2)S(=O)(=O)N1Cc1ccc(N2CCN(C3=CC(=O)CC(C)(C)C3)CC2)cc1F (stereo partly drawn) [Example 187, 3-{4-[3-Fluoro-4-((3S)-3-methyl-1,1-dioxo-6-phenyl-[1,2]thiazinan-2-ylmethyl)-phenyl]-piperazin-1-yl}-5,5-dimethyl-cyclohex-2-enone]
108 nM	C[C@H]1CCC(c2ccccc2)S(=O)(=O)N1Cc1ccc(N2CCN(C3=CC(=O)CCC3)CC2)cc1F (stereo partly drawn) [Example 188, 3-{4-[3-Fluoro-4-((3S)-3-methyl-1,1-dioxo-6-phenyl-[1,2]thiazinan-2-ylmethyl)-phenyl]-piperazin-1-yl}-cyclohex-2-enone]
59 nM	CC1=C(N2CCN(c3ccc(CN4[C@@H](C)CCC(c5ccccc5)S4(=O)=O)c(F)c3)CC2)CCC1=O (stereo partly drawn) [Example 189, 3-{4-[3-Fluoro-4-((3S)-3-methyl-1,1-dioxo-6-phenyl-[1,2]thiazinan-2-ylmethyl)-phenyl]-piperazin-1-yl}-2-methyl-cyclopent-2-enone]
